We go through eight compounds from ChEMBL document CHEMBL6177976, “Important Role of Triphenylamine in Modulating the Antibacterial Performance Relationships of Antimicrobial Peptide Mimics by Alkyl Chain Engineering” (J Med Chem, 2025).

Data set [1] has as its system Escherichia coli. Briefly: Antibacterial activity against Escherichia coli assessed as effect on bacterial growth incubated for 90 mins. The class given is functional, organism-based.
The test system of data set [2] is Staphylococcus aureus. Briefly: Antibacterial activity against Staphylococcus aureus incubated for 90 mins. It counts as functional, organism-based. The following applies: dose 10.0 µM.
The test system of data set [3] is HeLa. Briefly: Cytotoxicity against human HeLa cells assessed as dead cells at 32 uM measured after 24 hrs by PI staining based analysis. The class given is functional, cell-based.
Data set [4] relates to HeLa. Description: Cytotoxicity against human HeLa cells at 32 uM measured after 60 mins by Calcein AM assay. The class given is functional, cell-based.
In data set [5] the test system is Cell membrane. Description: Induction of Inner membrane integrity in Staphylococcus aureus at 128 uM measured for 40 mins in presence of cardiolipin by T12 dye based analysis.
In data set [6] the test system is Cell membrane. Briefly: Induction of Inner membrane integrity in Staphylococcus aureus at 128 uM measured for 40 mins T12 dye based analysis. The class given is subcellular.
Data set [7] has as its system HeLa. Briefly: Cytotoxicity against human HeLa cells at 32 uM incubated for 24 hrs by Calcein AM assay. It counts as functional, cell-based.
Data set [8] deals with Cell membrane. Description: Induction of Inner membrane integrity in Staphylococcus aureus at 128 uM measured for 40 mins in presence of phosphatidylglycerol by T12 dye based analysis. The class given is subcellular.
Data set [9] has as its system Escherichia coli. Briefly: Antibacterial activity against Escherichia coli assessed as change in surface zeta potential at 16 uM incubated for 20 mins. The class given is functional, organism-based.
Data set [10] deals with Staphylococcus aureus. Briefly: Antibacterial activity against methicillin resistant Staphylococcus aureus assessed as bacterial viability up to 12 uM. The class given is functional, organism-based.
The test system of data set [11] is Staphylococcus aureus. Briefly: Antibacterial activity against methicillin resistant Staphylococcus aureus assessed as bacterial viability at 4 uM incubated for 90 mins relative to control. It counts as functional. The conditions noted are these: 1.5 h.
The nature of data set [12]: Hemolytic activity in sheep red blood cells assessed as hemolysis. It counts as toxicity, cell-based, Ovis aries, Erythrocyte.
For data set [13], the system named is Cell membrane. Briefly: Induction of cell membrane damage in Staphylococcus aureus assessed as decrease in fluorescence intensity at 128 uM measured for 40 mins propidium iodide staining based analysis. The class given is subcellular.
For data set [14], the system named is Escherichia coli. Description: Antibacterial activity against Escherichia coli incubated for 90 mins. The class given is functional, organism-based.
For data set [15], the system named is Cell membrane. Briefly: Induction of cell membrane damage in Staphylococcus aureus at 20 uM incubated for 60 mins by SEM analysis. It counts as subcellular.
For data set [16], the system named is Cell membrane. Briefly: Induction of Inner membrane integrity in Staphylococcus aureus measured for 40 mins in presence of cardiolipin by T12 dye based analysis. The conditions noted are these: dose 128.0 µM. It counts as subcellular.
Data set [17] deals with Staphylococcus aureus. Briefly: Antibacterial activity against methicillin resistant Staphylococcus aureus assessed as bacterial viability at 10 uM incubated for 90 mins relative to control. The following applies: 1.5 h. It counts as functional.
The subject of data set [18] is Cell membrane. Briefly: Induction of cell membrane damage in Staphylococcus aureus assessed as increase in fluorescence intensity at 128 uM measured for 40 mins propidium iodide staining based analysis.
For data set [19], the system named is Cell membrane. Description: Induction of Inner membrane integrity in Staphylococcus aureus measured for 40 mins in presence of phosphatidylglycerol by T12 dye based analysis. It counts as subcellular. The conditions noted are these: dose 128.0 µM.
The subject of data set [20] is HeLa. Briefly: Cytotoxicity against human HeLa cells at 32 uM incubated for 24 hrs by CCK-8 assay. The class given is functional, cell-based. In general terms: Tetrazolium assays rely on reduction of a dye to a coloured formazan, in cell work by metabolically active cells.
Data set [21] concerns Cell membrane. Description: Induction of cytoplasmic membrane permeabilization in Staphylococcus aureus assessed as increase in fluorescence intensity at 16 uM incubated for […] by CLSM analysis.
In data set [22] the test system is Cell membrane. Briefly: Induction of cytoplasmic membrane permeabilization in Staphylococcus aureus assessed as increase in fluorescence intensity at 16 uM incubated for […] by SYTO 9 staining based analysis.
In data set [23] the test system is Staphylococcus aureus. Briefly: Antibacterial activity against Staphylococcus aureus assessed as change in surface zeta potential at 16 uM incubated for 20 mins. It counts as functional, organism-based.
Data set [24] concerns Staphylococcus aureus. Description: Induction of ROS accumulation in Staphylococcus aureus assessed as increase in singlet oxygen level by measuring reduction in HPF absorption peak at 10 uM irradiated with 650 nm 50 mW/cm2 light for 5 mins. It counts as functional, organism-based.
Data set [25] relates to Staphylococcus aureus. Description: Antibiofilm activity in Staphylococcus aureus assessed as inhibition of biofilm formation at 32 uM incubated for 48 hrs in presence of white light irradiation. The following applies: light or radiation study. It counts as functional.
The test system of data set [26] is Staphylococcus aureus. Briefly: Antibiofilm activity in Staphylococcus aureus assessed as inhibition of biofilm formation at 8 uM incubated for 48 hrs. The class given is functional, organism-based.
In data set [27] the test system is Staphylococcus aureus. Briefly: Bactericidal activity against methicillin-resistant Staphylococcus aureus assessed as bacterial viability at 4 uM pretreated with compound for 60 mins followed by white light irradiation for 30 mins by plate counting method. The conditions noted are these: time 90 min, 1.5 h. The class given is functional.
In data set [28] the test system is Staphylococcus aureus. Description: Antibacterial activity against Staphylococcus aureus assessed as increase in fluorescence intensity incubated for 20 mins. The class given is functional, organism-based.
Data set [29] relates to RAW264.7. Description: Cytotoxicity against mouse RAW264.7 cells at 32 uM incubated for 24 hrs by CCK-8 assay. The class given is toxicity, cell-based. The following applies: raw264.7, 24 h.
In data set [30] the test system is Staphylococcus aureus. Briefly: Induction of ROS accumulation in Staphylococcus aureus assessed as fold increase in fluorescence intensity at 1 uM by DCFH-DA staining based analysis. The class given is functional.
The subject of data set [31] is Staphylococcus aureus. Briefly: Bactericidal activity against Staphylococcus aureus assessed as bacterial viability at 4 uM pretreated with compound for 60 mins followed by white light irradiation for 30 mins by plate counting method. It counts as functional. The following applies: time 90 min, 1.5 h.
Data set [32] deals with Staphylococcus aureus. Description: Antipersister-activity against Staphylococcus aureus assessed as reduction in bacterial colony count preincubated with 100 times of MIC of rifampicin for 24 hrs followed by compound addition and measured after 8 hrs by drop plate counting method. The class given is functional, organism-based.
Data set [33] concerns Staphylococcus aureus. Description: Bactericidal activity against Staphylococcus aureus assessed as reduction in bacterial colony count measured at 2 hrs. The class given is functional, organism-based.
Data set [34] relates to Staphylococcus aureus. Briefly: Bactericidal activity against Staphylococcus aureus assessed as bacterial viability at 4 uM by plate counting method relative to control. The class given is functional.
Data set [35] relates to Staphylococcus aureus. Description: Antibiofilm activity in Staphylococcus aureus assessed as inhibition of biofilm formation incubated for 48 hrs by SYTO 9 staining based CLSM analysis. It counts as functional, organism-based.
For data set [36], the system named is Staphylococcus aureus. Briefly: Antibacterial activity against Staphylococcus aureus at 0.5 times MIC measured after 20 passages. The class given is functional, organism-based.
The subject of data set [37] is Staphylococcus aureus. Briefly: Drug resistance, ratio of MIC for Staphylococcus aureus after 20 passages to MIC for Staphylococcus aureus after initial exposure. The class given is functional.
The test system of data set [38] is Cell membrane. Briefly: Induction of cell membrane damage in Staphylococcus aureus at 20 uM incubated for 60 mins by TEM analysis. It counts as subcellular.
Data set [39] concerns Staphylococcus aureus. Description: Antibacterial activity against methicillin resistant Staphylococcus aureus infected in Kunming mouse model of skin wound infection assessed as effect on wound healing rate at 5 mg/kg administered for 7 days in presence of white light irradiation. The class given is functional, organism-based. The conditions noted are these: time 7.0 day.

Data set [40] relates to Staphylococcus aureus. Description: Antibiofilm activity in Staphylococcus aureus assessed as inhibition of biofilm formation incubated for 48 hrs in presence of white light irradiation by SYTO 9 staining based CLSM analysis. It counts as functional, organism-based.
Data set [41] deals with Staphylococcus aureus. Briefly: Antibacterial activity against methicillin resistant Staphylococcus aureus infected in Kunming mouse model of skin wound infection assessed as effect on wound healing rate at 5 mg/kg administered for 7 days. The class given is functional, organism-based. The conditions noted are these: time 7.0 day.
Data set [42] deals with Staphylococcus aureus. Briefly: Induction of ROS accumulation in Staphylococcus aureus assessed as increase in singlet oxygen level by measuring reduction in ABDA absorption peak at 10 uM irradiated with 650 nm 50 mW/cm2 light for 5 mins. The class given is functional, organism-based.
Data set [43] relates to Staphylococcus aureus. Description: Antibiofilm activity in Staphylococcus aureus assessed as inhibition of biofilm formation incubated for 48 hrs in presence of white light irradiation. The following applies: dose <= 32.0 µM. It counts as functional, organism-based.

Activity calls are given as the source filed them. No cut-off for these calls is given here.

On to `CCCCCCCC[N+](C)(C)CCCOc1ccc(/C=C/c2ccc(N(c3ccccc3)c3ccccc3)cc2)cc1.[Br-]`, for which the result in data set [1], in [4], in data set [5], in data set [7] and in data set [8] was inactive. Moreover, the outcome in data set [2], in [3], in data set [6], in data set [9], in [10] and in data set [13] was Active. Further, the outcome in data set [14] was Active. Moreover, the Activity in data set [11] worked out at 28%. The HC50 – broadly, the concentration that lyses half of the red blood cells – in [12] worked out at 75 µM.

Regarding `CCCCCCCCCC[N+](C)(C)CCCOc1ccc(/C=C/c2ccccc2)cc1.[Br-]`, the outcome in data set [2], in data set [15], in [6], in data set [18], in data set [10] and in data set [14] was Active. Moreover, the values for the Activity entry in [16], in data set [17] and in [19] were “Dose-dependent-effect”, 0.1% and “Dose-dependent-effect”, respectively.

With `CCCCCCCCCC[N+](C)(C)CCCOc1ccc(/C=C/c2ccc(N(c3ccccc3)c3ccccc3)cc2)cc1.[Br-]`, the outcome in data set [1], in [5] and in data set [8] was inactive. The outcome in [2], in data set [6], in [9], in [10], in [13] and in data set [14] was Active. Also, the Activity in [11] stood at 52%.

On to `CCCC[N+](C)(C)CCCOc1ccc(/C=C/c2ccc(N(c3ccccc3)c3ccccc3)cc2)cc1.[Br-]`, for which the outcome in data set [1] was inactive. Further, the outcome in data set [20], in data set [2], in data set [21], in data set [15], in [22] and in [6] was Active. Also, the result in data set [23], in [9], in data set [10] and in data set [14] was Active. For the same compound, the Activity result in data set [16] is “Dose-dependent-effect”; in data set [11], 2%; in [19] it was “Dose-dependent-effect”.

For the compound `C[N+](C)(C)CCCOc1ccc(/C=C/c2ccc(N(c3ccccc3)c3ccccc3)cc2)cc1.[Br-]`, the result in data set [1] and in [42] was inactive. For the same compound, the result in data set [24], in data set [20], in data set [2], in data set [21], in data set [15] and in data set [22] was Active. Also, the outcome in data set [26], in data set [28], in data set [32], in data set [6], in data set [33] and in data set [23] was Active. In addition, the outcome in data set [35], in data set [36], in data set [9], in [38], in data set [39] and in data set [40] was Active. Also, the result in data set [10], in data set [41] and in data set [14] was Active. Further, in data set [25], the inhibition – broadly, how much of the control response was suppressed – at 32 µM came to 100%. Moreover, the Activity result in data set [16] is “Dose-dependent-effect”; in data set [27] it was approximately 100%; in [29], “Non-toxic”; in data set [31], 0.5%; in data set [34] it was 11%; in data set [11], 3%. Moreover, the Activity entry in data set [43] and in [19] was “Dose-dependent-effect” in each case. The “fold change (FC)” value in data set [30] worked out at 100. Also, the Ratio in [37] is reported as 64. Besides, the concentration for 50% haemolysis (HC50) in [12] is more than 900 µM.

On to `CCCC[N+](C)(C)CCCOc1ccc(/C=C/c2ccccc2)cc1.[Br-]`, for which the result in data set [20], in data set [2], in data set [6], in data set [18], in [10] and in data set [14] was Active. In addition, the Activity in data set [17] is on record as 55%. Besides, the outcome in data set [5] and in data set [8] was inactive.

For the compound `CCCCCCCC[N+](C)(C)CCCOc1ccc(/C=C/c2ccccc2)cc1.[Br-]`, the outcome in data set [2], in data set [3], in data set [15], in [6], in data set [18] and in [10] was Active. The result in data set [14] was Active. Besides, the Activity result in data set [16] is “Dose-dependent-effect”; in data set [17], 4%; in data set [19], “Dose-dependent-effect”. For the same compound, the result in data set [4] and in data set [7] was inactive.

As to `C[N+](C)(C)CCCOc1ccc(/C=C/c2ccccc2)cc1.[Br-]`, the outcome in data set [20], in [2], in [6], in data set [18], in [10] and in [14] was Active. The Activity in data set [17] is recorded as 60%. The outcome in data set [5] and in data set [8] was inactive.
